Marks after values point to notes of the source that are not given here.
System: severe traumatic brain injury (sTBI)
Assay: sTBI in rats, HPLC of purine-pyrimidine / energy metabolites in brain (Example 3)
Format: in vivo, Male Wistar rats
Details: sacrifice 7 days
Description: The experimental protocol used in this study was approved by the Ethical Committee of the Catholic University of Rome, according to international standards and guidelines for animal care. Male Wistar rats of 300-350 g body weight (b.w.) were fed with standard laboratory diet and water ad libitum in a controlled environment.
1) n=6 animals subjected to sTBI, with drug administration after 30 minutes and sacrifice at 2 days post-TBI (Acute phase 1)
2) n=6 animals subjected to severe-TBI, with drug administration after 30 minutes and sacrifice at 7 days post-TBI (Acute phase 2).
3) n=6 animals subjected to severe-TBI, with drug administration after 3 days and sacrifice at 7 days post-TBI (Chronic phase).
As the anesthetic mixture, animals received 35 mg/kg b.w. ketamine and 0.25 mg/kg b.w. midazolam by i.p. injection. sTBI was induced by dropping a 450 g weight from 2 m height on to the rat head that had been protected by a metal disk previously fixed on the skull, according to the “weight drop” impact acceleration model (Marmarou et al., A new model of diffuse brain injury in rats. Part I: Pathophysiology and biomechanics. J Neurosurg. 1994; 80: 291-300). […] At the end of each period of treatment, rats were anesthetized again and then immediately sacrificed.
The drug treatment was a subcutaneous injection of 0.5 ml of LMW-DS (15 mg/kg) and administered according to the aforementioned schematic protocol.
An in vivo craniectomy was performed in all animals during anesthesia, after carefully removing the rat's skull, the brain was exposed and removed with a surgical spatula and quickly dropped in liquid nitrogen. After the wet weight (w.w.) determination, tissue preparation was affected as previously disclosed (Tavazzi et al., Cerebral oxidative stress and depression of energy metabolism correlate with severity of diffuse brain injury in rats. Neurosurgery. 2005; 56: 582-589; Vagnozzi et al., Temporal window of metabolic brain vulnerability to concussions: mitochondrial-related impairment-part I. Neurosurgery. 2007; 61: 379-388; Tavazzi et al., Temporal window of metabolic brain vulnerability to concussions: oxidative and nitrosative stresses-part II. Neurosurgery. 2007; 61: 390-395; Amorini et al., Severity of experimental traumatic brain injury modulates changes in concentrations of cerebral free amino acids. J Cell Mol Med. 2017; 21: 530-542.). Briefly, whole brain homogenization was performed with 7 ml of ice-cold, nitrogen-saturated, precipitating solution composed by CH3CN+10 mM KH2PO4, pH 7.40, (3:1; v:v), and using an Ultra-Turrax set at 24,000 rpm/min (Janke & Kunkel, Staufen, Germany). After centrifugation at 20,690×g, for 10 min at 4° C., the clear supernatants were saved, pellets were supplemented with 3 ml of the precipitating solution and homogenized again as described above. A second centrifugation was performed (20,690×g, for 10 min at 4° C.), pellets were saved, supernatants combined with those previously obtained, extracted by vigorous agitation with a double volume of HPLC-grade CHCl3 and centrifuged as above. The upper aqueous phases containing water-soluble low-molecular weight compounds were collected, subjected to chloroform washings for two more times (this procedure allowed the removal of all the organic solvent and of any lipid soluble compound from the buffered tissue extracts), adjusted in volumes with 10 mM KH2PO4, pH 7.40, to have ultimately aqueous 10% tissue homogenates and saved at −80° C. until assayed. […]

[1] = Acute phase 2: 15 mg/kg s.c. 30 min post-sTBI
[2] = Chronic phase: 15 mg/kg s.c. 3 days post-sTBI

Substance: low molecular weight dextran sulfate [LMW-DS]
- NO2, cerebral concentration [1]: 226.40 ± 30.95^b nmol/g (w.w.)
- NO3, cerebral concentration [1]: 198.56 ± 25.93^e,i nmol/g (w.w.)
- UDP, cerebral concentration [1]: 40.38 ± 8.50^a,i nmol/g (w.w.)
- UDP-Gal, cerebral concentration [1]: 145.14 ± 27.76 nmol/g (w.w.)
- UDP-GalNac, cerebral concentration [1]: 19.90 ± 3.12^a,e nmol/g (w.w.)
- UDP-Glc, cerebral concentration [1]: 44.44 ± 7.59^i nmol/g (w.w.)
- UDP-GlcNac, cerebral concentration [1]: 130.65 ± 28.41^a nmol/g (w.w.)
- UMP, cerebral concentration [1]: 138.73 ± 32.01^b nmol/g (w.w.)
- UTP, cerebral concentration [1]: 146.71 ± 32.68^e nmol/g (w.w.)
- acetyl-CoA, cerebral concentration [1]: 36.86 ± 4.11^e nmol/g (w.w.)
- adenine, cerebral concentration [1]: 58.16 ± 6.36^a,f nmol/g (w.w.)
- ascorbic acid, cerebral concentration [1]: 3512.58 ± 224.62^a,e nmol/g (w.w.)
- creatinine, cerebral concentration [1]: 37.27 ± 5.82^a,e,j nmol/g (w.w.)
- cytidine, cerebral concentration [1]: 16.18 ± 4.21^e nmol/g (w.w.)
- cytosine, cerebral concentration [1]: 15.70 ± 4.10^f nmol/g (w.w.)
- guanine, cerebral concentration [1]: 4.73 ± 1.07 nmol/g (w.w.)
- guanosine, cerebral concentration [1]: 17.90 ± 3.24^j nmol/g (w.w.)
- hypoxanthine, cerebral concentration [1]: 12.90 ± 2.58^a,j nmol/g (w.w.)
- inosine, cerebral concentration [1]: 85.52 ± 20.36^e nmol/g (w.w.)
- malonyl-CoA, cerebral concentration [1]: 11.29 ± 2.27^b nmol/g (w.w.)
- orotic acid, cerebral concentration [1]: 13.34 ± 3.65^a nmol/g (w.w.)
- thymidine, cerebral concentration [1]: 0.49 ± 0.20^f nmol/g (w.w.)
- uracil, cerebral concentration [1]: 19.40 ± 7.52^a,e nmol/g (w.w.)
- uric acid, cerebral concentration [1]: 19.17 ± 2.15^a,h,i nmol/g (w.w.)
- uridine, cerebral concentration [1]: 63.02 ± 9.66^b,e nmol/g (w.w.)
- xanthine, cerebral concentration [1]: 10.41 ± 2.11^f nmol/g (w.w.)
- β-pseudouridine, cerebral concentration [1]: 13.26 ± 3.16^a,e,j nmol/g (w.w.)
- ADO, cerebral concentration [2]: 89.97 ± 12.98^a nmol/g (w.w.)
- ADP, cerebral concentration [2]: 315.53 ± 46.53^a nmol/g (w.w.)
- ADP-ribose, cerebral concentration [2]: 173.94 ± 8.45^a nmol/g (w.w.)
- AMP, cerebral concentration [2]: 90.01 ± 21.24^a nmol/g (w.w.)
- ATP, cerebral concentration [2]: 1381.03 ± 212.64^a nmol/g (w.w.)
- CDP choline, cerebral concentration [2]: 8.37 ± 2.19 nmol/g (w.w.)
- CDP, cerebral concentration [2]: 23.55 ± 6.45^a nmol/g (w.w.)
- CMP, cerebral concentration [2]: 20.51 ± 3.73^a,f nmol/g (w.w.)
- CTP, cerebral concentration [2]: 25.23 ± 2.93^a,f nmol/g (w.w.)
- CoA-SH, cerebral concentration [2]: 27.58 ± 6.24^f nmol/g (w.w.)
- GDP glucose, cerebral concentration [2]: 43.85 ± 5.06^b nmol/g (w.w.)
- GDP, cerebral concentration [2]: 173.05 ± 28.68^a,e nmol/g (w.w.)
- GMP, cerebral concentration [2]: 148.56 ± 31.21^a nmol/g (w.w.)
- GSH, cerebral concentration [2]: 2608.67 ± 358.07^a,e nmol/g (w.w.)
- GSSG, cerebral concentration [2]: 231.08 ± 44.34^b,f nmol/g (w.w.)
- GTP, cerebral concentration [2]: 290.92 ± 34.68^a,f nmol/g (w.w.)
- IMP, cerebral concentration [2]: 99.29 ± 13.82^a nmol/g (w.w.)
- MDA, cerebral concentration [2]: 11.62 ± 3.90^a,e nmol/g (w.w.)
- NADH, cerebral concentration [2]: 11.78 ± 3.32^e nmol/g (w.w.)
- NADPH, cerebral concentration [2]: 7.34 ± 2.65^f nmol/g (w.w.)
- NADP^+, cerebral concentration [2]: 16.44 ± 2.66^a,f nmol/g (w.w.)
- NAD^+, cerebral concentration [2]: 301.13 ± 29.90^a nmol/g (w.w.)
- NM, cerebral concentration [2]: 6375.36 ± 974.12^a,e nmol/g (w.w.)
- NO2, cerebral concentration [2]: 217.67 ± 55.04^a nmol/g (w.w.)
- NO3, cerebral concentration [2]: 241.27 ± 18.84^e nmol/g (w.w.)
- UDP, cerebral concentration [2]: 57.40 ± 5.88^a,f nmol/g (w.w.)
- UDP-Gal, cerebral concentration [2]: 122.29 ± 12.15 nmol/g (w.w.)
- UDP-GalNac, cerebral concentration [2]: 21.84 ± 2.80^a,e nmol/g (w.w.)
- UDP-Glc, cerebral concentration [2]: 35.79 ± 3.45^b nmol/g (w.w.)
- UDP-GlcNac, cerebral concentration [2]: 129.42 ± 15.88^b nmol/g (w.w.)
- UMP, cerebral concentration [2]: 103.11 ± 29.79 nmol/g (w.w.)
- UTP, cerebral concentration [2]: 136.80 ± 33.25^f nmol/g (w.w.)
- acetyl-CoA, cerebral concentration [2]: 35.68 ± 6.55^e nmol/g (w.w.)
- adenine, cerebral concentration [2]: 52.94 ± 8.59^a,f nmol/g (w.w.)
- ascorbic acid, cerebral concentration [2]: 3375.03 ± 856.41^a,e nmol/g (w.w.)
- creatinine, cerebral concentration [2]: 51.25 ± 10.17^a,f nmol/g (w.w.)
- cytidine, cerebral concentration [2]: 14.71 ± 2.83^e nmol/g (w.w.)
- cytosine, cerebral concentration [2]: 15.58 ± 2.50^b,f nmol/g (w.w.)
- guanine, cerebral concentration [2]: 5.31 ± 1.04^b nmol/g (w.w.)
- guanosine, cerebral concentration [2]: 28.87 ± 7.60^a,f nmol/g (w.w.)
- hypoxanthine, cerebral concentration [2]: 17.97 ± 4.49^a nmol/g (w.w.)
- inosine, cerebral concentration [2]: 105.81 ± 25.57^f nmol/g (w.w.)
- malonyl-CoA, cerebral concentration [2]: 10.00 ± 1.95^b nmol/g (w.w.)
- orotic acid, cerebral concentration [2]: 12.05 ± 1.50^a nmol/g (w.w.)
- thymidine, cerebral concentration [2]: 0.71 ± 0.11 nmol/g (w.w.)
- uracil, cerebral concentration [2]: 16.57 ± 2.99^a,f nmol/g (w.w.)
- uric acid, cerebral concentration [2]: 27.77 ± 3.60^a nmol/g (w.w.)
- uridine, cerebral concentration [2]: 63.28 ± 3.37^f nmol/g (w.w.)
- xanthine, cerebral concentration [2]: 9.35 ± 0.83^f nmol/g (w.w.)
- β-pseudouridine, cerebral concentration [2]: 18.62 ± 2.80^a nmol/g (w.w.)

Source: patent US11534457B2, “Use of dextran sulfate” (priority 2017, dated 2022)
